Legend:
SCF pathway = SCF pathway in melanocytes: melanogenesis-regulating gene expression after CBD stimulation (qPCR); assay type: cell-based, human; conditions: 2.5 μM cannabidiol; 0.5 and 5 μM apigenin or 10 and 25 μM phloretin; 24 hours; genes DCT, PAX3
Method: In order to assess the inhibition of the SCF pathway in melanocytes, human epidermal melanocytes were cultured with 2.5 μM cannabidiol (CBD)+0.5 and 5 μM apigenin or 10 and 25 μM phloretin for 24 hours. After the treatment, the RNA was extracted (Norgen, #17200) and a real-time qPCR was performed (Takara, #R[…]) on the DCT and PAX3 genes.

skin hyperpigmentation = conditions: mice treated with UVB; cited from earlier work
miR-675 = miR-675 levels in melanocytes (real-time qPCR); assay type: cell-based; conditions: human epidermal melanocytes, 0.5 μM apigenin, 24 hours
Method: In order to assess the effect of miRNA levels in melanocytes, human epidermal melanocytes were cultured with 0.5 μM apigenin or 10 μM phloretin for 24 hours. After the treatment, the RNA was extracted (Norgen, #17200) and a real-time qPCR was performed (Takara, #638313) on miR-675.

VEGF = VEGF gene expression (real-time qPCR) in dermal fibroblasts; assay type: cell-based, human; conditions: 10 and 25 μM apigenin, 24 hours
Method: (§1) To assess the levels of key pigmentation regulatory markers in fibroblasts, dermal fibroblasts (Promocell, #C-12302) were cultured for 24 hours with the active ingredient apigenin. After the treatment, the RNA was extracted (Norgen, #17200) and real-time qPCR was performed (Takara, #R[…]) on the DKK1 and VEGF genes.

Wnt pathway = Wnt pathway in melanocytes: melanogenesis-regulating gene expression after BIO stimulation (qPCR); assay type: cell-based, human; conditions: 0.1 μM BIO; 0.5 and 5 μM apigenin or 10 and 25 μM phloretin; 24 hours; genes TYRP1, DCT, PAX3, PMEL17
Method: After the treatment, the RNA was extracted (Norgen, #17200) and a real-time qPCR was performed (Takara, #R[…]) on the TYRP1, DCT, PAX3 and PMEL17 genes.

DKK1 = DKK1 gene expression (real-time qPCR) in dermal fibroblasts; assay type: cell-based, human; conditions: 10 and 25 μM apigenin, 24 hours
Method: as §1

tyrosinase = conditions: spectroscopy and chromatography; cited from earlier work

SMILES | expression of the melanogenesis-regulating genes after stimulation with CBD (SCF pathway) | skin hyperpigmentation (skin hyperpigmentation) | miR-675 levels (miR-675) | VEGF expression (VEGF) | expression of melanogenesis-regulating genes after stimulation with BIO (Wnt pathway) | DKK1 expression (DKK1) | action on tyrosinase (tyrosinase)
O=c1cc(-c2ccc(O)cc2)oc2cc(O)cc(O)c12 [apigenin, 5,7-dihydroxy-2-(4-hydroxyphenyl)-4H-1-benzopyran-4-one] | significantly reduce | inhibits | significantly increasing | reduces | significantly reduce | significantly induces | 
O=C(CCc1ccc(O)cc1)c1c(O)cc(O)cc1O [phloretin, 3-(4-hydroxyphenyl)-1-(2,4,6-trihydroxyphenyl)propane-1-one] | significantly reduce |  |  |  | significantly reduce |  | a tyrosinase substrate but also an inhibitor
